Source: patent US8877766B2, “Neuroprotective multifunctional antioxidants and their monofunctional analogs” (priority 2013, dated 2014)

Legend:
[1] = test system: SH-SY5Y neuroblastoma cells; assay: Superoxide assay, MitoSOX Red, xanthine oxidase generated superoxide; format: cell-based, human; conditions: xanthine oxidase 25 mU/mL
Description: The ability of the HK series of multifunctional and monofunctional antioxidant compounds to specifically reduce superoxide radicals in live cells was assessed in both SH-SY5Y neuroblastoma cells and ARPE-19 retinal pigmented epithelial cells. The production of superoxide by mitochondria was visualized with fluorescence microscopy using the MitoSOX™ Red reagent (Invitrogen Life Sciences, Grand Island, N.Y.), which permeates live cells, where it selectively targets mitochondria. It is rapidly oxidized by superoxide, but not by other reactive oxygen species (ROS) and reactive nitrogen species (RNS). The oxidized product is highly fluorescent upon binding to nucleic acid. […] The cell media was then removed from each well, and the wells were washed with PBS. Compounds (HK series and JHX series and antioxidant standards (Hydroquinone (HQ), Trolox (T), Vitamin E (VE), Vitamin C (VC)) dissolved in DMSO (10 μL) were then added to each well, along with fresh media (140 μL) without serum albumin (FBS). Superoxide dismutase (SOD, 500 μg/mL, 10 μL) was used as an additional control, and cells in all groups (controls, drug treated, and SOD treated groups) were exposed to the same amounts of DMSO. After addition, the cells were incubated at 37° C. under a 5% CO2 atmosphere for 1 hr. Xanthine oxidase (XO), was then added (25 mU/mL) to generate approximately 100 μM superoxide, and culture continued for an additional hour. The media was then again removed, and the cells were washed with PBS. Finally, the cells were stained with 100 μL of the MitoSOX Red reagent (5 μM), and 2 hr after further incubation, the fluorescence of each well was measured using fluorescent microplate reader at Ex/Em=510/580 nm.

[2] = test system: SH-SY5Y neuroblastoma cells; assay: Cell viability study, MTS Cell Titer 96 Aqueous One Solution assay; conditions: 1 mM compound in 0.16% DMSO
Description: (§5) The in vitro cell viability studies were conducted as previously described using SH-SY5Y neuroblastoma cells (ATCC) and cultured according to ATCC procedures in 1:1 Eagles minimum essential medium with Earle's balanced salt solution and Ham's F12 (EMEM-F12) media containing (10% fetal bovine serum (FBS)) at 37° C. under a 5% CO2 atmosphere. Cell viability studies were conducted over a 24 hour period in 96-well plates using the Cell Titer 96® Aqueous One Solution Cell Proliferation Assay (MTS, Promega, Madison, Wis.) with 1 mM of each compound or clioquinol (PBT1) dissolved in 0.16% DMSO. […] This is a colorimetric method for determining the number of viable cells in proliferation or cytotoxicity assays where the One Solution contains MTS (3-(4,5-dimethylthiazol-2-yl)-5-(3-carboxymethoxyphenyl)-2-(4-sulfophenyl)-2H-tetrazolium), in the presence of phenazine methosulfate (PMS). The MTS compound is bioreduced by cells into a colored formazan product and, as measured by the amount of 490 nm absorbance, is directly proportional to the number of living cells in culture. […] The protective effect of these compounds against H2O2 and hydroxyl radical generated by the Fenton reaction were examined.

[3] = test system: SH-SY5Y neuroblastoma cells; assay: LIVE/DEAD Viability/Cytotoxicity Assay, hydroxyl radical (Fenton reagent) induced cell death; format: cell-based, human; conditions: 2 hours exposure to Fenton reagent
Description: (§1) The ability of the HK series of multifunctional antioxidant compounds to specifically protect against hydroxyl radical-induced cell death was assessed in both SH-SY5Y neuroblastoma cells and ARPE-19 retinal pigmented epithelial cells using the LIVE/DEAD® Viability/Cytotoxicity Assay (Invitrogen Life Sciences, Grand Island, N.Y.). The cells were seeded into 96-well plates and grown in standard media (1:1 EMEM-F12 media containing 10% FBS for the human SH-SY5Y neuroblastoma cells, or DMEM containing 4% FBS for the human ARPE-19 retinal pigmented epithelial cells), at 37° C. under a 5% CO2 atmosphere until 80% confluence was achieved (ca. 24 hr). The media was then removed, and the cells were washed with PBS. Compounds (HK series and JHX series or antioxidant standards (Hydroquinone (HQ), Trolox (T), Vitamin E (VE), Vitamin C (VC)) dissolved in DMSO (10 μL) were again added to the cells, along with the appropriate media without FPS. Following a 1 hr incubation at 37° C. under a 5% CO2 atmosphere, Fenton reagents (Fe^2+ and hydrogen peroxide dissolved in appropriate media without FBS to give a final concentration of 100 μM) were added to each well, and incubation continued. After 2 hr of incubation with Fenton reagent, the media was removed and the cells were washed with PBS. The cells were stained with 100 μL of the LIVE/DEAD reagent containing calcein AM (AM, 8 μM for NB) and ethidium homodimer-1 (EthD-1, 16 μM for NB) for 1 hr at 37° C. The fluorescence of each well was measured using a fluorescent microplate reader at Ex/Em=494/517 nm (Fsam for LIVE Cells) and Ex/Em=528/617 nm (Fsam for DEAD Cells). The fluorescence of control samples was also measured as follows: Fmax for LIVE Cells (The fluorescence at Ex/Em=494/517 nm in live cells samples labeled with AM only); Fmin for LIVE Cells (The fluorescence at Ex/Em=494/517 nm in live cells samples labeled with EthD-1 only); Fmax for DEAD Cells (The fluorescence at Ex/Em=528/617 nm in dead cells samples labeled with EthD-1 only); Fmin for DEAD Cells (The fluorescence at Ex/Em=528/617 nm in dead cells samples labeled with AM only); Blank 494/517 (The fluorescence at Ex/Em=494/517 nm without dye and cells); Blank 528/617 (The fluorescence at Ex/Em=528/617 nm without dye and cells). For the dead cells control, the cells were incubated with 70% of ethanol for 30 min at 37° C. The percentage of live cells was calculated from the fluorescence readings using the equation
(§2) [formula] The percentage of dead cells was calculated from the fluorescence readings using the equation: […]

[4] = test system: ARPE-19 retinal pigmented epithelial cells; assay: as above; format: cell-based, human; conditions: ARPE-19, 2 hours exposure to Fenton reagent
Description: as §1, §2

[5] = test system: light-induced retinal damage; conditions: rats; cited from earlier work
diabetic cataract = conditions: diabetic rats; cited from earlier work
radiation cataract = conditions: Long-Evans rats, 15 Gy whole head gamma irradiation; cited from earlier work
ARPE-19 RPE cells = assay: Mitochondrial viability/toxicity, rhodamine 123 staining with or without MnCl2; format: cell-based, human; conditions: ARPE-19, 1 mM drug, 1 mM MnCl2
[6] = test system: SH-SY5Y neuroblastoma cells; assay: Zinquin analysis of cellular labile zinc after exposure to Aβ1-42/Zn complex; format: cell-based, human; conditions: 10 μM drug
Description: (§3) The ability of MFAOs to release zinc from amyloid beta/zinc complex was investigated using […] from American Peptide Company, Inc. (Vista, Calif.). The Aβ1-42/Zn complex was prepared as follow. ZnSO4 solution (200 μM) and Aβ1-42 (200 μM) were mixed together and incubated at 37° C. After 48 hr incubation, the mixture was centrifuged at 14000×g, 3 min to pellet the aggregated Aβ1-42. The aggregated Aβ1-42 was then resuspended in water or 200 μM of drugs. The complex was diluted with Hank's Balanced Saline Solution (HBSS) to give a final 10 μM concentration for each component. This complex was then used in the following studies employing human SH-SY5Y neuroblastoma and ARPE-19 pigmented epithelial cells. The studies were repeated 2-4 times.
(§4) Human SH-SY5Y neuroblastoma cells were seeded into 8-well microscope plates (BD Falcon, 800μ-slides), and the cells were incubated in EMEM-F12 media containing 10% FBS at 37° C. under a 5% CO2 atmosphere. Once the cells were approximately 80% confluent in each well, the media was removed, and the cells were washed with phosphate buffered saline (PBS). […] The zinquin fluorescence was then measured in the fixed cells by confocal fluorescence microscopy using a DAPI (4′,6-diamidino-2-phenylindole) DAPI filter set to assess the cellular compartmentalization of zinc. […]

[7] = test system: SH-SY5Y neuroblastoma cells; assay: Mitochondrial viability/toxicity, rhodamine 123 staining with or without MnCl2; format: cell-based, human; conditions: 1 mM drug, 1 mM MnCl2
Description: The laser dye rhodamine 123 is shown to be a specific probe for the localization of mitochondria in living cells. Because of its selectivity for mitochondria, this stain can be used to probe alterations in mitochondria induced by drugs. Therefore, studies were conducted to determine whether MFAOs can adversely alter mitochondrial function through their ability chelate transition metals.
Human SH-SY5Y neuroblastoma cells were seeded into 8-well microscope plates (BD Falcon, 800μ-slides), and the cells were incubated in EMEM-F12 media containing 10% FBS at 37° C. under a 5% CO2 atmosphere. Once the cells were approximately 80% confluent in each well, the media was removed and the cells were washed with PBS. The cells were then pre-incubated for 1 hour at 37° C. under a 5% CO2 atmosphere with 200 μL of HBSS medium without FBS containing drug JHX-1, -4, -5, -8, HK-2, -4, -9, -11, or Clioquinol dissolved in DMSO, so that final drug concentrations of 1 mM in 4% DMSO were achieved. Then MnCl2 was added to the appropriate cells groups to give a final concentration of 1 mM, and the groups were cultured for an additional 2 hours. After the […] exposure to manganese, the media was removed and the cells were washed with PBS. The cells were then stained with 100 μL of the fluorescent dye rhodamine 123 (Rh123) (20 μM) and Hoechst 33342 (8 μM) per well at 37° C., 5% CO2 for 30 min. […]

[8] = test system: ARPE-19 retinal pigmented epithelial cells; assay: Zinquin analysis of cellular labile zinc after exposure to Aβ1-42/Zn complex; format: cell-based, human; conditions: ARPE-19, 10 μM drug
Description: as §3, §4

[9] = test system: SH-SY5Y neuroblastoma cells; assay: Protective effect against H2O2 and Fenton-generated hydroxyl radical, MTS cell viability; format: cell-based, human; conditions: versus DMSO control
Description: as §5

SMILES | reduction of superoxide radical [1] | decrease in 24 hr cell viability compared to DMSO treated cells [2] | other results
O=C1CCC(=O)N1c1ncccn1 [HK-1, 1-(2-pyrimidyl)pyrrolidine-2,5-dione] | did not |  | 
O=C1CCC(=O)N1c1ncc(O)cn1 [HK-2, 1-(5-hydroxy-2-pyrimidyl)pyrrolidine-2,5-dione] |  | approximately 20% | 
COc1cc(OC)nc(N2C(=O)CCC2=O)n1 [HK-3, 1-(4,6-dimethoxy-2-pyrimidyl)pyrrolidine-2,5-dione] | did not |  | 
O=C1CCCC(=O)N1c1ncccn1 [HK-5, 1-(2-pyrimidyl)piperidine-2,6-dione] | did not |  | 
O=C1CCCC(=O)N1c1ncc(O)cn1 [HK-6, 1-(5-hydroxy-2-pyrimidyl)piperidine-2,6-dione] |  | approximately 20% | 
COc1cc(OC)nc(N2C(=O)CCCC2=O)n1 [HK-7, 1-(4,6-dimethoxy-2-pyrimidyl)piperidine-2,6-dione] | did not |  | 
COc1nc(N2C(=O)CCCC2=O)nc(OC)c1O [HK-8, 1-(4,6-dimethoxy-5-hydroxy-2-pyrimidyl)piperidine-2,6-dione] |  | 30% | 
c1cnc(N2CCCC2)nc1 [HK-9, 2-(pyrrolidine-1-yl)pyrimidine] | no effect |  | protection against hydroxyl radicals (live/dead cells) [3]: no effect
Oc1cnc(N2CCCC2)nc1 [HK-10, 5-hydroxy-2-(pyrrolidine-1-yl)pyrimidine] | demonstrated protection |  | protection against hydroxyl radical (live/dead cells) [4]: dose-dependent protection
COc1cc(OC)nc(N2CCCC2)n1 [HK-11, 4,6-dimethoxy-2-(pyrrolidine-1-yl)pyrimidine] | no effect |  | protection against hydroxyl radicals (live/dead cells) [3]: no effect
COc1nc(N2CCCC2)nc(OC)c1O [HK-12, 5-hydroxy-4,6-dimethoxy-2-(pyrrolidine-1-yl)pyrimidine] | demonstrated protection |  | protection against hydroxyl radical (live/dead cells) [4]: dose-dependent protection
Oc1cnc(N2CCCCC2)nc1 [HK-14, 5-hydroxy-2-(piperidine-1-yl)pyrimidine] | demonstrated protection |  | protection against hydroxyl radical (live/dead cells) [4]: dose-dependent protection
COc1nc(N2CCCCC2)nc(OC)c1O [HK-16, 5-hydroxy-4,6-dimethoxy-2-(piperidine-1-yl)pyrimidine] | demonstrated protection |  | protection against hydroxyl radical (live/dead cells) [4]: dose-dependent protection
CN(C)S(=O)(=O)N1CC(=O)N(c2ncc(O)cn2)C(=O)C1 [JHX-4] |  |  | protection against light-induced retinal damage [5]: protects rats against light-induced retinal damage; progression of cataracts (diabetic cataract): delayed the progression of cataracts; cataract formation after irradiation (radiation cataract): significantly delayed cataract formation
Cc1c(C)c2c(c(C)c1O)CCC(C)(C(=O)O)O2 (centres unmarked) [Trolox, reference compound] |  | approximately 20% | 
Oc1c(I)cc(Cl)c2cccnc12 [clioquinol] |  | 50% | loss of rhodamine 123 staining after MnCl2 (ARPE-19 RPE cells): not observed; labile zinc (zinquin staining) in presence of aggregated Aβ1-42/Zn complex [6]: maintain labile zinc levels; loss of rhodamine 123 staining after MnCl2 [7]: not observed; labile zinc (zinquin staining) in presence of aggregated Aβ1-42/Zn complex [8]: maintain labile zinc levels; cell viability in the Fenton reaction [9]: lower than DMSO control
